Assay results reported in patent publication US11701372B2, “Inhalation formulations of 1'-cyano substituted carba-nucleoside analogs” (priority 2020, dated 2023).
Like-named read-outs stand apart in the source and are kept apart here.

Columns and labels:
[1] = format: physicochemical; details: for % assay/degs: T = 0
Protocol: For each condition, samples were staged at ambient and refrigerated conditions. Samples were analyzed for % assay/degs, appearance, reconstitution time, pH, and compared to T=0. The structures of the key impurities/metabolites are shown below.

[2] = PK following IV administration of Formula Ia in African Green Monkeys; design: species or system African Green Monkeys; details: monkey, in vivo; 10 mg/kg IV AGM; read-out: AUC0-t
[3] = in vivo; details: both, monkey, inhaled or intranasal
[4] = In use testing of reconstituted solutions in IV bags and IV tubings; format: physicochemical
Source text: The IV bags and IV tubings were sampled over time and tested for % assay/degradation.

[5] = both, monkey, in vivo, 0.168 mg/kg

For `N#C[C@@]1(c2ccc3c(N)ncnn23)O[C@H](CO)[C@@H](O)[C@H]1O` [Compound A], the “% assay/degs, difference from T = 0” value ([1]; pH 1.8, 2-8° C., 2 h) was 0.00%, the “% assay/degs, difference from T = 0” value ([1]; pH 1.8, 2-8° C., 3 h) was 0.00% and the “% assay/degs, difference from T = 0” value ([1]; pH 1.8, 2-8° C., 8 h) was 0.00%. For the same compound, the “% assay/degs, difference from T = 0” value ([1]; pH 1.8, 2-8° C., 24 h) was 0.01%, the “% assay/degs, difference from T = 0” value ([1]; pH 1.8, 2-8° C., 48 h) was 0.02% and the “% assay/degs, difference from T = 0” value ([1]; pH 1.8, Ambient, 1 h) was 0.00%. The “% assay/degs, difference from T = 0” value ([1]; pH 1.8, Ambient, 2 h) was 0.00%, the “% assay/degs, difference from T = 0” value ([1]; pH 1.8, Ambient, 3 h) was 0.01% and the “% assay/degs, difference from T = 0” value ([1]; pH 1.8, Ambient, 8 h) was 0.01%. The “% assay/degs, difference from T = 0” value ([1]; pH 1.8, Ambient, 24 h) was 0.05%, the “% assay/degs, difference from T = 0” value ([1]; pH 1.8, Ambient, 48 h) was 0.09% and the “% assay/degs” value ([1]; pH 1.8) was 0.02%. For the same compound, the “% assay/degs, difference from T = 0” value ([1]; pH 2.0, 2-8° C., 2 h) was 0.00%, the “% assay/degs, difference from T = 0” value ([1]; pH 2.0, 2-8° C., 3 h) was 0.00% and the “% assay/degs, difference from T = 0” value ([1]; pH 2.0, 2-8° C., 8 h) was 0.00%. For the same compound, the “% assay/degs, difference from T = 0” value ([1]; pH 2.0, 2-8° C., 24 h) was 0.00%, the “% assay/degs, difference from T = 0” value ([1]; pH 2.0, 2-8° C., 48 h) was 0.01% and the “% assay/degs, difference from T = 0” value ([1]; pH 2.0, Ambient, 1 h) was 0.00%. For the same compound, the “% assay/degs, difference from T = 0” value ([1]; pH 2.0, Ambient, 2 h) was 0.00%, the “% assay/degs, difference from T = 0” value ([1]; pH 2.0, Ambient, 3 h) was 0.00% and the “% assay/degs, difference from T = 0” value ([1]; pH 2.0, Ambient, 8 h) was 0.01%. The “% assay/degs, difference from T = 0” value ([1]; pH 2.0, Ambient, 24 h) was 0.03%, the “% assay/degs, difference from T = 0” value ([1]; pH 2.0, Ambient, 48 h) was 0.06% and the “% assay/degs” value ([1]; pH 2.0) was 0.02%. The “% assay/degs, difference from T = 0” value ([1]; pH 3.5, 2-8° C., 2 h) was 0.00%, the “% assay/degs, difference from T = 0” value ([1]; pH 3.5, 2-8° C., 8 h) was 0.00% and the “% assay/degs, difference from T = 0” value ([1]; pH 3.5, 2-8° C., 24 h) was 0.00%. For the same compound, the “% assay/degs, difference from T = 0” value ([1]; pH 3.5, 2-8° C., 48 h) was 0.00%, the “% assay/degs, difference from T = 0” value ([1]; pH 3.5, 2-8° C., 72 h) was 0.00% and the “% assay/degs, difference from T = 0” value ([1]; pH 3.5, 2-8° C., 96 h) was 0.00%. For the same compound, the “% assay/degs, difference from T = 0” value ([1]; pH 3.5, 2-8° C., 168 h) was 0.00%, the “% assay/degs, difference from T = 0” value ([1]; pH 3.5, Ambient, 2 h) was 0.00% and the “% assay/degs, difference from T = 0” value ([1]; pH 3.5, Ambient, 8 h) was 0.00%. For the same compound, the “% assay/degs, difference from T = 0” value ([1]; pH 3.5, Ambient, 24 h) was 0.00%, the “% assay/degs, difference from T = 0” value ([1]; pH 3.5, Ambient, 48 h) was 0.00% and the “% assay/degs, difference from T = 0” value ([1]; pH 3.5, Ambient, 72 h) was 0.00%. The “% assay/degs, difference from T = 0” value ([1]; pH 3.5, Ambient, 96 h) was 0.01%, the “% assay/degs, difference from T = 0” value ([1]; pH 3.5, Ambient, 168 h) was 0.01% and the “% assay/degs” value ([1]; pH 3.5) was 0.02%. The “% assay/degs, difference from T = 0” value ([1]; pH 3.8, 2-8° C., 7.2 h) was 0.00%, the “% assay/degs, difference from T = 0” value ([1]; pH 3.8, 2-8° C., 24 h) was 0.00% and the “% assay/degs, difference from T = 0” value ([1]; pH 3.8, 2-8° C., 96 h) was 0.00%. The “% assay/degs, difference from T = 0” value ([1]; pH 3.8, 2-8° C., 168 h) was 0.00%, the “% assay/degs, difference from T = 0” value ([1]; pH 3.8, Ambient, 7.2 h) was 0.00% and the “% assay/degs, difference from T = 0” value ([1]; pH 3.8, Ambient, 24 h) was 0.00%. The “% assay/degs, difference from T = 0” value ([1]; pH 3.8, Ambient, 96 h) was 0.00%, the “% assay/degs, difference from T = 0” value ([1]; pH 3.8, Ambient, 168 h) was 0.00% and the “% assay/degs” value ([1]; pH 3.8) was 0.02%. For the same compound, the “% assay/degs, difference from T = 0” value ([1]; pH 4.0, 2-8° C., 7.2 h) was 0.00%, the “% assay/degs, difference from T = 0” value ([1]; pH 4.0, 2-8° C., 24 h) was 0.00% and the “% assay/degs, difference from T = 0” value ([1]; pH 4.0, 2-8° C., 96 h) was 0.00%. For the same compound, the “% assay/degs, difference from T = 0” value ([1]; pH 4.0, 2-8° C., 168 h) was 0.00%, the “% assay/degs, difference from T = 0” value ([1]; pH 4.0, Ambient, 7.2 h) was 0.00% and the “% assay/degs, difference from T = 0” value ([1]; pH 4.0, Ambient, 24 h) was 0.00%. For the same compound, the “% assay/degs, difference from T = 0” value ([1]; pH 4.0, Ambient, 96 h) was 0.00%, the “% assay/degs, difference from T = 0” value ([1]; pH 4.0, Ambient, 168 h) was 0.00% and the “% assay/degs” value ([1]; pH 4.0) was 0.02%. For the same compound, the AUC(0-t) [2] was 9.06 µM·h, the Tmax ([3]; 0.168 mg/kg) was 1 h and the Cmax ([3]; 0.536 mg/kg) was 71 ± 11 nM. The Tmax ([3]; 0.536 mg/kg) was 2 h, the “% assay/degradation” value ([4]; 0 h, 0.3 mg/mL) was 0.02 % w/w and the “% assay/degradation” value ([4]; 30 mg (IV Bag), Ambient 8 h) was 0.02 % w/w. For the same compound, the “% assay/degradation” value ([4]; 30 mg (IV Bag), Ambient 24 h) was 0.02 % w/w, the “% assay/degradation” value ([4]; 30 mg (IV Bag), T = 0 (2-8° C. series)) was 0.02 % w/w and the “% assay/degradation” value ([4]; 30 mg (IV Tube), Ambient 6 Hours) was 0.03 % w/w. For the same compound, the “% assay/degradation” value ([4]; 200 mg (IV Bag), 2-8° C. 24 h) was 0.02 % w/w, the “% assay/degradation” value ([4]; 200 mg (IV Bag), 2-8° C. 48 h) was 0.02 % w/w and the “% assay/degradation” value ([4]; 200 mg (IV Bag), Ambient 8 h) was 0.02 % w/w. For the same compound, the “% assay/degradation” value ([4]; 200 mg (IV Bag), Ambient 24 h) was 0.02 % w/w, the “% assay/degradation” value ([4]; 200 mg (IV Bag), T = 0 (2-8° C. series)) was 0.02 % w/w and the “% assay/degradation” value ([4]; 200 mg in 100 mL 0.9% Saline (IV Bag), T = 0 (Ambient series)) was 0.02 % w/w. For the same compound, the “% assay/degradation” value ([4]; 4 h, 0.3 mg/mL) was 0.02 % w/w, the “% assay/degradation” value ([4]; 4 h, 2 mg/mL) was 0.02 % w/w and the “% assay/degradation” value ([4]; 6 h, 2 mg/mL) was 0.02 % w/w. For the same compound, the “% assay/degradation” value ([4]; 24 h, 0.3 mg/mL) was 0.02 % w/w, the “% assay/degradation” value ([4]; 48 h, 0.3 mg/mL) was 0.02 % w/w and the “mean estimated terminal elimination half-life” value [5] was 7.58 h.
